Test results taken from patent US20050169914A1, “Novel functions for decay accelerating factor (DAF) in inflammation” (priority 2003, published 2005).

System: CD55 mRNA expression
Assay: Hypoxia-induced CD55 mRNA expression in Caco2 cells with transcriptional inhibitor
Assay type: cell-based, human
Conditions: DRB 10 μM
Protocol: First, it was determined whether hypoxia-induced CD55 results from increased transcriptional activity. Caco2 cells were subjected to hypoxia in the presence or absence of the transcriptional inhibitor 5,6-dichlorobenzimidazole riboside (DRB, 10 μM) and assessed for changes in CD55 mRNA expression. […] Consequently, increases in CD55 by hypoxia required new mRNA synthesis.

OC[C@H]1O[C@@H](n2cnc3cc(Cl)c(Cl)cc32)[C@H](O)[C@@H]1O [DRB, 5,6-dichlorobenzimidazole riboside]
decrease in CD55 inducibility by hypoxia: 87±7%
